The values below come from patent publication US20090000631A1, “Smoking articles and method for incorporating salts of lanthanide metals for reducing TPM cytotoxicity and targeted constituents in tobacco smoke” (Philip Morris USA Inc., priority 2007, published 2009).

Each structure is given as a SMILES string.

Data set [1] is described as follows: Relative phenolic and PAH contents of mainstream TPM by GC/MS (FTC smoking, 3rd and 4th puffs). Conditions: change of relative content in mainstream TPM, tobacco treated with acetate salt alone. The text has this:
(§1) Under FTC conditions, the 3rd and 4th puffs of the mainstream TPM are collected. The relative phenolic and PAH contents are obtained by GC/MS methods. The TPM cytotoxicity data is obtained using the Neutral Red Uptake, while mutagenicity data is obtained using Ames assays.
(§2) Under FTC conditions, the 3rd and 4th puffs of the mainstream TPM are collected. The relative phenolic and PAH contents are obtained by GC/MS methods. The TPM cytotoxicity and mutagenicity data are obtained using Neutral Red Uptake and Ames assays, respectively.

The next data set relates to TPM cytotoxicity. Put plainly: TPM cytotoxicity, Neutral Red Uptake. Conditions: change of TPM cytotoxicity; tobacco treated with acetate salt alone; FTC, 3rd and 4th puffs. Format: cell-based.
Text: as §1, §2

The test system of another data set is TPM mutagenicity. Put plainly: TPM mutagenicity, Ames assays. Conditions: for Mutagenicity: change of TPM mutagenicity, tobacco treated with acetate salt alone, FTC, 3rd and 4th puffs; for mutagenicity of the mainstream smoke (in words): mainstream smoke TPM of treated tobacco. Format: cell-based.
Text: as §1, §2

With `CC(=O)[O-].CC(=O)[O-].CC(=O)[O-].O.[Ce+3]` [7.4% Ce(OAc)3•H2O, Ce(OAc)3•H2O], in data set [1], the HQ is reported as −23%, the Naphthalene is given as −47%, the catechol is −54% and the resorcinol result was “— (No significant change (absolute change <20%))”. For the same molecule, in the data set with TPM cytotoxicity, the Cytotoxicity result is “— (No significant change (absolute change <20%))”. Moreover, in the data set on TPM mutagenicity, the Mutagenicity entry was “— (No significant change (absolute change <20%))”.
Consider `CC(=O)[O-].CC(=O)[O-].CC(=O)[O-].O.[Eu+3]` [8% Eu(OAc)3•H2O, Eu(OAc)3•H2O], for which, in data set [1], the HQ was −39%, the Naphthalene is recorded as −54%, the catechol is reported as −48% and the resorcinol is reported as −33%. Moreover, in the data set on TPM cytotoxicity, the Cytotoxicity result is “— (No significant change (absolute change <20%))”. Further, in the data set with TPM mutagenicity, the Mutagenicity is on record as −21% and the “mutagenicity of the mainstream smoke (in words)” value (“mutagenicity … (in words)” below) is “reduced”.
Consider `CC(=O)[O-].CC(=O)[O-].CC(=O)[O-].[La+3]` [8% La(OAc)3•xH2O (x ≦ 2), La(OAc)3•xH2O], for which, in data set [1], the HQ is listed as −60%, the Naphthalene was −51%, the catechol is −41% and the resorcinol was −56%. Besides, the Cytotoxicity in the data set on TPM cytotoxicity was −25%. Besides, in the data set with TPM mutagenicity, the Mutagenicity is reported as −46% and the “mutagenicity … (in words)” value was “reduced”.
As for `CC(=O)[O-].CC(=O)[O-].CC(=O)[O-].O.[Lu+3]` [8.2% Lu(OAc)3•H2O, Lu(OAc)3•H2O], in data set [1], the HQ is −49%, the Naphthalene was −33%, the catechol is −33% and the resorcinol was −39%. The Cytotoxicity entry with TPM cytotoxicity was “— (No significant change (absolute change <20%))”. Further, in the data set on TPM mutagenicity, the Mutagenicity entry is given as “— (No significant change (absolute change <20%))” and the “mutagenicity … (in words)” value is “reduced”.
